Results reported in the supplement of paper PMC5908809.

Assays:
[1] = system: KHYG-1 (IL-2 2.5 ng/mL); test: drug sensitivity score (DSS) (DSS units); higher = more sensitive; extreme values may be limits of the assay; conditions: 72 h
[2] = system: IMC-1 (IL-2 20 ng/mL); test: as above; conditions: 72 h
[3] = system: NKL (IL-2 2.5 ng/mL); test: as above; conditions: 72 h
[4] = system: YT (IL-2 2.5 ng/mL); test: as above; conditions: 72 h
[5] = system: NK-YS (IL-2 2.5 ng/mL); test: as above; conditions: 72 h
[6] = system: normal primary NK cells, pool 1 (3 donors) (IL-2 2.5 ng/mL); test: as above; conditions: 72 h
[7] = system: SNK-6 (IL-2 2.5 ng/mL); test: as above; conditions: 72 h
[8] = system: normal primary NK cells, pool 3 (3 donors) (IL-2 2.5 ng/mL); test: as above; conditions: 72 h
[9] = system: KAI3 (IL-2 2.5 ng/mL); test: as above; conditions: 72 h
[10] = system: normal primary NK cells, pool 1 (3 donors), resting (IL-2 0 ng/mL); test: as above; conditions: 72 h
[11] = system: NK-92 (IL-2 2.5 ng/mL); test: as above; conditions: 72 h
[12] = system: normal primary NK cells, pool 2 (3 donors) (IL-2 2.5 ng/mL); test: as above; conditions: 72 h
[13] = system: DERL-7 (IL-2 2.5 ng/mL); test: as above; conditions: 72 h
[14] = system: normal NK cells expanded with K562-aAPC; test: percent inhibition of viability; higher = more inhibition; conditions: 72 h, IL-2 2.5 ng/mL
Description: (§1)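 Drug sensitivity and resistance testing on K562-aAPC-expanded normal NK cells: 5 concentrations (10-fold steps over a 10,000-fold range), 72 h at 37 °C, viability by CellTiter-Glo normalised to DMSO and benzethonium chloride controls; DSS from the fitted curve.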

[15] = system: normal NK cells expanded with K562-aAPC; test: drug sensitivity score (DSS) (DSS units); higher = more sensitive; extreme values may be limits of the assay; conditions: 72 h; IL-2 2.5 ng/mL
Description: as §1

[16] = system: KHYG-1 (IL-2 2.5 ng/mL); test: percent inhibition of viability; higher = more inhibition; conditions: 72 h
[17] = system: IMC-1 (IL-2 20 ng/mL); test: as above; conditions: 72 h
[18] = system: NKL (IL-2 2.5 ng/mL); test: as above; conditions: 72 h
[19] = system: YT (IL-2 2.5 ng/mL); test: as above; conditions: 72 h
[20] = system: NK-YS (IL-2 2.5 ng/mL); test: as above; conditions: 72 h
[21] = system: normal primary NK cells, pool 1 (3 donors) (IL-2 2.5 ng/mL); test: as above; conditions: 72 h
[22] = system: SNK-6 (IL-2 2.5 ng/mL); test: as above; conditions: 72 h
[23] = system: normal primary NK cells, pool 3 (3 donors) (IL-2 2.5 ng/mL); test: as above; conditions: 72 h
[24] = system: KAI3 (IL-2 2.5 ng/mL); test: as above; conditions: 72 h
[25] = system: normal primary NK cells, pool 1 (3 donors), resting (IL-2 0 ng/mL); test: as above; conditions: 72 h
[26] = system: NK-92 (IL-2 2.5 ng/mL); test: as above; conditions: 72 h
[27] = system: normal primary NK cells, pool 2 (3 donors) (IL-2 2.5 ng/mL); test: as above; conditions: 72 h
[28] = system: DERL-7 (IL-2 2.5 ng/mL); test: as above; conditions: 72 h

Nc1ncn([C@H]2C[C@H](O)[C@@H](CO)O2)c(=O)n1 [Decitabine] (max concentration tested 10000 nM)
Conditions	drug sensitivity score
[1]	11.7
[2]	6.54
[3]	3.12
[4]	5.68
[5]	9.23
[6]	1.27
[7]	23.5
[8]	3.32
[9]	21
[10]	1.82
[11]	12.6
[12]	1.92
[13]	14.1
[15]	5.69

percent inhibition of viability [%]
Conditions	1 nM	10 nM	100 nM	1000 nM	10000 nM
[14]	3.63	6.61	11.9	21.8	56.1
[16]	4.42	1.27	13.6	51.4	89.8
[17]	6.19	9.72	18.9	18.9	49.6
[18]	0.73	9.17	7.62	27.4	15
[19]	9.12	6.63	10.1	24.2	47.4
[20]	2.7	4.69	16.5	38	64.8
[21]	8.63	2.5	-2.22	-0.78	30.4
[22]	3.81	14.8	64.3	70.1	78.8
[23]	-2.52	-0.43	2.61	5.08	47.6
[24]	10.1	26.4	51.8	58.8	73
[25]	3.59	-12.2	2.07	-6.83	43.9
[26]	14.1	7.13	28.5	42.4	81.5
[27]	-3.35	-1.69	-11.7	3	32.2
[28]	0.66	-1.23	21.1	60.8	92.3

CC(=O)O[C@@]12CO[C@@H]1C[C@H](O)[C@@]1(C)C(=O)[C@H](O)C3=C(C)[C@@H](OC(=O)[C@H](O)[C@@H](NC(=O)OC(C)(C)C)c4ccccc4)C[C@@](O)([C@@H](OC(=O)c4ccccc4)[C@H]21)C3(C)C [Docetaxel] (max concentration tested 1000 nM)
Conditions	drug sensitivity score
[1]	29.3
[2]	30.5
[3]	32.2
[4]	31.9
[5]	25.9
[6]	0
[7]	28.8
[8]	1.58
[9]	18.3
[10]	0
[11]	23.4
[12]	0.25
[13]	30.4
[15]	16.8

percent inhibition of viability [%]
Conditions	0.1 nM	1 nM	10 nM	100 nM	1000 nM
[14]	1.57	-0.15	44.7	62.4	60.9
[16]	-5.67	3.57	90.9	108	109
[17]	-1.65	2.39	97.9	101	101
[18]	-13.8	29	88.5	97.8	96.7
[19]	-3.12	22.3	90.7	105	105
[20]	-7.69	14.3	74.8	77.7	73.1
[21]	-5.72	-1.18	7.27	4.99	10.2
[22]	15	38.3	77.9	76.7	70.6
[23]	-13.5	-17	14	7.86	24.8
[24]	-10.5	19.4	46.7	57.1	51.6
[25]	-16.6	-21.6	-3.21	-14.6	1.53
[26]	-6.6	2.65	46	98.9	104
[27]	-10.9	-7.43	13.8	3.59	13.1
[28]	-4.53	0.19	99.5	100	100

CN1CCN(c2ccc3nc(-c4c(N)c5c(F)cccc5[nH]c4=O)[nH]c3c2)CC1 [Dovitinib] (max concentration tested 10000 nM)
Conditions	drug sensitivity score
[1]	0
[2]	0
[3]	4.18
[4]	0
[5]	0.43
[6]	0
[7]	0
[8]	0.36
[9]	1.71
[10]	4.36
[11]	0
[12]	0.35
[13]	0.77
[15]	0

percent inhibition of viability [%]
Conditions	1 nM	10 nM	100 nM	1000 nM	10000 nM
[14]	-2.16	-2.71	2.91	-0.42	3.96
[16]	-5.15	-3.54	0.13	3.06	2.7
[17]	-9.28	-4.03	-5.76	-6.55	-7.61
[18]	-10	-6.08	-3.28	8.58	51.6
[19]	1.17	0.22	2.9	5.68	1.67
[20]	-1.41	-0.72	1.54	8.71	13.5
[21]	-15.6	-11.3	-2.48	-5.56	9.92
[22]	-4.17	-5.09	-18.2	-14	-35.3
[23]	-13.4	-9.6	-2.56	-3.69	18.9
[24]	2.03	-0.28	0.82	4.98	25.2
[25]	-23.8	-2.86	19.4	10.6	53.9
[26]	-5.95	-5.28	-3.15	-3.74	0.3
[27]	-7.55	-5.64	-7.93	-6.84	19.6
[28]	-0.26	-2.47	-0.75	1.93	19.1

COc1cccc2c1C(=O)c1c(O)c3c(c(O)c1C2=O)C[C@@](O)(C(=O)CO)C[C@@H]3O[C@H]1C[C@H](N)[C@H](O)[C@H](C)O1 [Doxorubicin] (max concentration tested 1000 nM)
Conditions	drug sensitivity score
[1]	14.6
[2]	16
[3]	28.7
[4]	13.3
[5]	17.1
[6]	10.3
[7]	15.5
[8]	8.97
[9]	16.2
[10]	13.3
[11]	12.8
[12]	10.2
[13]	17.4
[15]	10.8

percent inhibition of viability [%]
Conditions	0.1 nM	1 nM	10 nM	100 nM	1000 nM
[14]	-3.12	-5.25	-1.72	39.8	99.8
[16]	-8.45	-6.72	-0.27	79.3	98.3
[17]	-7.6	-2.62	-0.06	88.2	99.8
[18]	-17.6	-0.29	89.2	102	97.3
[19]	-4.73	-5.55	-0.81	69.3	97.2
[20]	-8.43	-6.33	14.6	83.5	95.3
[21]	-9.2	-4.36	4.47	40.8	96.5
[22]	20	14.8	5.01	80.6	94.3
[23]	-4.57	-14.4	-9.04	23.1	97.2
[24]	-17.1	-0.05	19.4	74.9	89.1
[25]	-18	-16.6	1.78	70.1	92.1
[26]	-8.55	11.3	-2.45	64.2	96.6
[27]	-14	-6.82	-8.6	37.2	94.4
[28]	-0.26	-4.85	13.4	85.9	100

Cc1cc(C)c(CNC(=O)c2cc(-c3ccc(CN4CCOCC4)cc3)cc3c2cnn3C2CCCC2)c(=O)[nH]1 [EPZ-5687] (max concentration tested 10000 nM)
Conditions	drug sensitivity score
[1]	0
[2]	0
[3]	0
[4]	0
[5]	0
[6]	0
[7]	0
[8]	0
[9]	0
[10]	4.36
[11]	0
[12]	0
[13]	0
[15]	0

percent inhibition of viability [%]
Conditions	1 nM	10 nM	100 nM	1000 nM	10000 nM
[14]	-0.71	-3.48	-3.69	-2.2	0.02
[16]	-5.28	1.66	-5.39	-4.15	-3.04
[17]	-4.92	-2.89	-1.1	-3.52	-3.58
[18]	-7.92	-9.21	-9.03	-6.87	-4.34
[19]	-2.28	-2.31	-4.1	0.78	-1.43
[20]	-6.64	-3.26	-5.52	-1.38	4.13
[21]	-2.66	-3.34	-7.26	-0.16	1.72
[22]	-3.6	10.5	-5.25	-4.13	-15.8
[23]	-6.45	-1.35	-6.34	-4.92	-4.19
[24]	1.34	-2.83	3.75	-1.27	-8.91
[25]	-3.8	-2.57	0.76	26.6	18.2
[26]	-18.6	-17.5	-11.1	-7.12	-16.9
[27]	-10.3	-5.37	-0.75	-12.1	-3.82
[28]	-1.37	6.73	-10.3	-3.14	3.39
